Assays:
Format in all cases: cell-based
[1] = molecular target: T1, P2X7R (Homo sapiens, UniProt Q99572); assay: whole-cell patch clamp, concentration-dependent inward currents
T1 sequence (Q99572 1-595): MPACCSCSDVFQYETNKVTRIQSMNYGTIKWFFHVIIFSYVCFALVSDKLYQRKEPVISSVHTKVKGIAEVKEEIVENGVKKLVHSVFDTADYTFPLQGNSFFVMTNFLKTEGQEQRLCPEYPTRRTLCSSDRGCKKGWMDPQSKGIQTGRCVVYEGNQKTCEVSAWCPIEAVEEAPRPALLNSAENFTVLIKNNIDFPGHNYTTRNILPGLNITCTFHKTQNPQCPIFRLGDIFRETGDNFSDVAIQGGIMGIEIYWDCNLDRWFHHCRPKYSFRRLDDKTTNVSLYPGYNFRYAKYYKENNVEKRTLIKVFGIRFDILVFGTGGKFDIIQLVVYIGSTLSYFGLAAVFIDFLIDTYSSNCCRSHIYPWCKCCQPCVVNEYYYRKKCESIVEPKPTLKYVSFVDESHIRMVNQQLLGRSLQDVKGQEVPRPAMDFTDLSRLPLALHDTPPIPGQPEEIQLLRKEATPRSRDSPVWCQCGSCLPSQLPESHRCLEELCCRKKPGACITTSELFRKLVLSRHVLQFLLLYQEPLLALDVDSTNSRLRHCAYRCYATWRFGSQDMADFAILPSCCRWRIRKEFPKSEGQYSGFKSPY

[2] = molecular target: T1, P2X7R; assay: whole-cell patch clamp:[…] blocks […] ATP-evoked current
[3] = molecular target: T1, P2X7R; assay: inhibition of ATP-induced

## Nc1ncnc2c1ncn2[C@@H]1O[C@H](COP(=O)(O)OP(=O)(O)OP(=O)(O)O)[C@@H](O)[C@H]1O [ATP]
[1]
  EC50: 877 µM

## Clc1cccc(-c2nnnn2Cc2cccnc2)c1Cl [A438079]
[2]
  IC50: 2250 nM

## O=C1CSC(=O)N1C(CCc1ccncc1)COc1ccc(-c2cccc([N+](=O)[O-])c2)cc1 (stereo not drawn) [AZ11645373]
[3]
  IC50: 1350 nM
